Like-named read-outs stand apart in the source and are kept apart here.
What was measured:
[1] = biological target: T1, human ACC1 (acetyl-coenzyme A carboxylase alpha transcript variant 1) (Homo sapiens, UniProt Q13085); test: Human ACC1 enzyme assay, Assay B1 (ADP-Glo); format: biochemical
T1 construct: FLAG (C); made in house; host or cells: baculovirus-infected insect cells (Hi5)
Protocol: (§1) Essentially, the enzyme activity is measured by quantifying the adenosine diphosphate (ADP) formed as a byproduct of the enzyme reactions using the ADP-Glo™ detection system from Promega. In this test, initially the adenosine triphosphate (ATP) not consumed in the enzyme reaction is converted quantitatively with an adenylate cyclase (“ADP-GLO reagent”) into cAMP, the adenylate cyclase is then stopped and (“kinase detection reagent”) the ADP formed is subsequently converted into ATP, which is converted in a luciferase-based reaction into a glow luminescence signal.
The concentration of the hACC1 was adapted to the respective activity of the enzyme and adjusted such that the assay operated in the linear range. […] The amount of light emitted was taken as a measure for the amount of ADP formed and thus for the enzyme activity of the hACC1.

[2] = biological target: human ACC2 (acetyl-coenzyme A carboxylase 2) (Homo sapiens, UniProt O00763); test: Human ACC2 enzyme assay, Assay B2 (ADP-Glo);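 also: human ACC2 activity read as ADP product, detected by luciferase glow luminescence after residual ATP removal, enzyme near 2 ng/µl in linear range, detection steps at 22 °C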
Protocol: The hACC2-inhibitory action of the substances of the present invention was measured in the hACC2 assay described in the paragraphs below.
as §1
The concentration of the hACC2 was adapted to the respective activity of the enzyme and adjusted such that the assay operated in the linear range. Typical concentrations were in the range of 2 ng/μl. […] The amount of light emitted was taken as a measure for the amount of ADP formed and thus for the enzyme activity of the hACC2.

[3] = Assay B1, read-out: ACC 1 (=B1) IC50

Sequence of human ACC2 (acetyl-coenzyme A carboxylase 2) (O00763 27-2458 limits assumed): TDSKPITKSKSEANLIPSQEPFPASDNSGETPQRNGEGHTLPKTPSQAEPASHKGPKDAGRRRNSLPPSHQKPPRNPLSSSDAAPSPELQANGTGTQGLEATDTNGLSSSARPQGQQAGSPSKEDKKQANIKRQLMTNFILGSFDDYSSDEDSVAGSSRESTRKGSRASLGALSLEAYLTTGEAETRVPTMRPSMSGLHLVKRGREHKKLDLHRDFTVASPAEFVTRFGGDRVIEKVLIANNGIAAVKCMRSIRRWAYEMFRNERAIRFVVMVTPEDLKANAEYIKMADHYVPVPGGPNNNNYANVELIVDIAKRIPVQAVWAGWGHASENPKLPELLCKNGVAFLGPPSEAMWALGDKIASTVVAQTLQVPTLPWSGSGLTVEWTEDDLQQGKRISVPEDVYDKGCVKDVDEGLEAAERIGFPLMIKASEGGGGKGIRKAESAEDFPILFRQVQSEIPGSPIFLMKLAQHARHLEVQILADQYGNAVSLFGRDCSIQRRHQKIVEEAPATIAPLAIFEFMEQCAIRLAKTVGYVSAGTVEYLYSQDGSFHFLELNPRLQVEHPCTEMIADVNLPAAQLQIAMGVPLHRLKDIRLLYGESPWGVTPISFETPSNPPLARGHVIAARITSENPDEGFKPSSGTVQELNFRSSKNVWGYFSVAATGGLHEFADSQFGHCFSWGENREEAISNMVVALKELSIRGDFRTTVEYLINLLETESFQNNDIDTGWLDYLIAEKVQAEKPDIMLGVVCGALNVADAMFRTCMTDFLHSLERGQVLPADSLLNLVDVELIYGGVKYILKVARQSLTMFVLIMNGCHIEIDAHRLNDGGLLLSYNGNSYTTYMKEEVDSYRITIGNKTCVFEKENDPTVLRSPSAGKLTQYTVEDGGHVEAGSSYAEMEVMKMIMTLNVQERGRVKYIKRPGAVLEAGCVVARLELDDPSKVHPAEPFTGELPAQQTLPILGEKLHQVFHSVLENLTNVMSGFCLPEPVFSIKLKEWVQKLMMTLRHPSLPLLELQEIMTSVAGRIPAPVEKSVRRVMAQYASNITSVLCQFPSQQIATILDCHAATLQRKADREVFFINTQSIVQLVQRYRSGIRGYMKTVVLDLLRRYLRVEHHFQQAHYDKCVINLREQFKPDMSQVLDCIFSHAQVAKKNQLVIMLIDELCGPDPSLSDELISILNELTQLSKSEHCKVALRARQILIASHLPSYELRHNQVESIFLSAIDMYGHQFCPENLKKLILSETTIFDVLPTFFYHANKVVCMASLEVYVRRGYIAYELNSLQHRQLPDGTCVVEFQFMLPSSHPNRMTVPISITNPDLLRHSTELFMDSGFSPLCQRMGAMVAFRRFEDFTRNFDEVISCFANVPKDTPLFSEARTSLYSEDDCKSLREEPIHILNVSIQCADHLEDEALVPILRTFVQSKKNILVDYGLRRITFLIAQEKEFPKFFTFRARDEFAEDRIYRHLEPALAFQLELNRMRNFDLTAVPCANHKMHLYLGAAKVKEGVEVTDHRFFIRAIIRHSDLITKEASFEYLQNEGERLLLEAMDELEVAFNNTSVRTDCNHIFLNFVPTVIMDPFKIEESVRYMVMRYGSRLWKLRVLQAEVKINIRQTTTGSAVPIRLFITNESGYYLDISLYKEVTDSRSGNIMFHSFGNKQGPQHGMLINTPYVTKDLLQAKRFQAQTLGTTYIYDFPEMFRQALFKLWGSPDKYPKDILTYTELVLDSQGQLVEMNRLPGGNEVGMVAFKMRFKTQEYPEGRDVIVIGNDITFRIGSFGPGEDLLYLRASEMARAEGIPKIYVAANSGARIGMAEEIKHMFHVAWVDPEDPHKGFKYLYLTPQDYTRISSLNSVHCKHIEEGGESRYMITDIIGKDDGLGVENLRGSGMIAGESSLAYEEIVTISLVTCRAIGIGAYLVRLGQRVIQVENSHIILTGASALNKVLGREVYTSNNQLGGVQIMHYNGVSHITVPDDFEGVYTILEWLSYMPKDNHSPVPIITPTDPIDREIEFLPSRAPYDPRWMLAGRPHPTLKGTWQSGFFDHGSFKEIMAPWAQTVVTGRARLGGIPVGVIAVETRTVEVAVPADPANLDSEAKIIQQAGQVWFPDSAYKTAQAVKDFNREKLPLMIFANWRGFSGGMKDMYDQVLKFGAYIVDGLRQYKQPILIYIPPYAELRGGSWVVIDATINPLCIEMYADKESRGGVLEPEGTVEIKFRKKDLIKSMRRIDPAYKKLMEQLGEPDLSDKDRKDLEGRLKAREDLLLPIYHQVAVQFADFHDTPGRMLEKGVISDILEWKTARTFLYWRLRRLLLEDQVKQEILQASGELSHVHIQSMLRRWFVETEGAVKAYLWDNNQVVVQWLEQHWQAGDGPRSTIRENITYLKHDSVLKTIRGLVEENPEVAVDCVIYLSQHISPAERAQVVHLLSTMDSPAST

SMILES	IC50 [1, 3] [nM]	IC50 [2] [µM]	IC50 [1] [nM]
CCOCCO[C@@H]1CC[C@@]2(C1)NC(=O)C(c1cc(-c3ccc(Cl)cc3)ccc1C)=C2O (relative stereo) [1-50, rel-(5R,7S)-3-(4′-chloro-4-methylbiphenyl-3-yl)-7-(2-ethoxyethoxy)-4-hydroxy-1-azaspiro[4.4]non-3-en-2-one]	11800	> 20	–
COCCO[C@@H]1CCC[C@]2(C1)NC(=O)C(c1cc(-c3ccc(Cl)cc3)ccc1Cl)=C2O (relative stereo) [1-74, rel-(5R,7R)-3-(4,4′-dichlorobiphenyl-3-yl)-4-hydroxy-7-(2-methoxyethoxy)-1-azaspiro[4.5]dec-3-en-2-one]	–	> 20	2420
Cc1ccc(-c2ccc(Cl)cc2)cc1C1=C(O)CN(C(C)C)C1=O [1-17, 3-(4′-chloro-4-methylbiphenyl-3-yl)-4-hydroxy-1-(propan-2-yl)-1,5-dihydro-2H-pyrrol-2-one]	–	11.4	553
Cc1ccc(-c2ccc(Cl)cc2)cc1C1=C(O)CN(C2CC2)C1=O [1-18, 3-(4′-chloro-4-methylbiphenyl-3-yl)-1-cyclopropyl-4-hydroxy-1,5-dihydro-2H-pyrrol-2-one]	982	16.4	–
Cc1ccc(-c2ccc(Cl)cc2)cc1C1=C(O)C(C)N(C(C)C)C1=O (stereo not drawn) [1-19, 3-(4′-chloro-4-methylbiphenyl-3-yl)-4-hydroxy-5-methyl-1-(propan-2-yl)-1,5-dihydro-2H-pyrrol-2-one]	532	≥ 20	–
Cc1ccc(-c2ccc(Cl)cc2)cc1C1=C(O)C2(Cc3ccccc3C2)NC1=O [1-25, 4′-(4′-chloro-4-methylbiphenyl-3-yl)-3′-hydroxy-1,3-dihydrospiro[inden-2,2′-pyrrol]-5′(1′H)-one]	288	3.78	–
CCOC1CCC2(CC1)NC(=O)C(c1cc(-c3ccc(Cl)cc3)ccc1C)=C2O (stereo not drawn) [1-28, 3-(4′-chloro-4-methylbiphenyl-3-yl)-8-ethoxy-4-hydroxy-1-azaspiro[4.5]dec-3-en-2-one]	438	2.11	–
Cc1ccc(-c2ccc(F)cc2)c(C)c1C1=C(O)C2(CCC(OCC(F)(F)F)CC2)NC1=O (stereo not drawn) [1-31, 3-(4′-fluoro-2,4-dimethylbiphenyl-3-yl)-4-hydroxy-8-(2,2,2-trifluoroethoxy)-1-azaspiro[4.5]dec-3-en-2-one]	–	7.89	811
Cc1ccc(-c2ccc(F)cc2)c(C)c1C1=C(O)C2(CCCCC2)NC1=O [1-40, 3-(4′-fluoro-2,4-dimethylbiphenyl-3-yl)-4-hydroxy-1-azaspiro[4.5]dec-3-en-2-one]	1320	> 20	–
COCC1(C)NC(=O)C(c2cc(-c3ccc(Cl)cc3)ccc2C)=C1O (stereo not drawn) [1-46, 3-(4′-chloro-4-methylbiphenyl-3-yl)-4-hydroxy-5-(methoxymethyl)-5-methyl-1,5-dihydro-2H-pyrrol-2-one]	–	> 20	1130
COCCC1CCCC2(C1)NC(=O)C(c1c(C)ccc(-c3ccc(Cl)cc3)c1C)=C2O (stereo not drawn) [1-55, 3-(4′-chloro-2,4-dimethylbiphenyl-3-yl)-4-hydroxy-7-(2-methoxyethyl)-1-azaspiro[4.5]dec-3-en-2-one]	924	3.29	–
O=C1NC2(CCC3(CC2)OCCCO3)C(O)=C1c1cc(-c2ccc(Cl)cc2)ccc1Cl [1-58, 3-(4,4′-dichlorobiphenyl-3-yl)-4-hydroxy-9,13-dioxa-1-azadispiro[4.2.5.2]pentadec-3-en-2-one]	–	19.9	434
Cc1ccc(-c2ccc(Cl)cc2)cc1C1=C(O)C2(CCC3(CC2)OCCCO3)NC1=O [1-59, 3-(4′-chloro-4-methylbiphenyl-3-yl)-4-hydroxy-9,13-dioxa-1-azadispiro[4.2.5.2]pentadec-3-en-2-one]	–	11.6	261
Cc1ccc(-c2ccc(Cl)cc2)cc1C1=C(O)C2(CCC3(CC2)OCCO3)NC1=O [1-60, 11-(4′-chloro-4-methylbiphenyl-3-yl)-12-hydroxy-1,4-dioxa-9-azadispiro[4.2.4.2]tetradec-11-en-10-one]	–	5.99	189
O=C1NC2(CCC3(CC2)OCCO3)C(O)=C1c1cc(-c2ccc(Cl)cc2)ccc1Cl [1-61, 11-(4,4′-dichlorobiphenyl-3-yl)-12-hydroxy-1,4-dioxa-9-azadispiro[4.2.4.2]tetradec-11-en-10-one]	–	9.04	88
Cc1ccc(-c2ccc(Cl)cc2)c(C)c1C1=C(O)C2(CCC3(CC2)OCC(C)O3)NC1=O (stereo not drawn) [1-62, 11-(4′-chloro-2,4-dimethylbiphenyl-3-yl)-12-hydroxy-2-methyl-1,4-dioxa-9-azadispiro[4.2.4.2]tetradec-11-en-10-one]	385	5.74	–
Cc1ccc(-c2ccc(Cl)cc2)cc1C1=C(O)C2(CCC3(CC2)OCC(C)O3)NC1=O (stereo not drawn) [1-63, 11-(4′-chloro-4-methylbiphenyl-3-yl)-12-hydroxy-2-methyl-1,4-dioxa-9-azadispiro[4.2.4.2]tetradec-11-en-10-one]	–	7.27	277
Cc1ccc(-c2ccc(Cl)cc2)cc1C1=C(O)C2(CCC3(CC2)OC(C)C(C)O3)NC1=O (stereo not drawn) [1-64, 11-(4′-chloro-4-methylbiphenyl-3-yl)-12-hydroxy-2,3-dimethyl-1,4-dioxa-9-azadispiro[4.2.4.2]tetradec-11-en-10-one]	–	> 20	571

SMILES	IC50 [1, 3] [nM]	IC50 [2] [µM]	IC50 [1] [nM]
CC1(C)COC2(CCC3(CC2)NC(=O)C(c2cc(-c4ccc(Cl)cc4)ccc2Cl)=C3O)OC1 [1-65, 3-(4,4′-dichlorobiphenyl-3-yl)-4-hydroxy-11,11-dimethyl-9,13-dioxa-1-azadispiro[4.2.5.2]pentadec-3-en-2-one]	1160	14.7	–
Cc1ccc(-c2ccc(Cl)cc2)cc1C1=C(O)C2(CCC3(CC2)OCC(C)CO3)NC1=O (stereo not drawn) [1-66, 3-(4′-chloro-4-methylbiphenyl-3-yl)-4-hydroxy-11-methyl-9,13-dioxa-1-azadispiro[4.2.5.2]pentadec-3-en-2-one]	–	3.13	493
Cc1ccc(-c2ccc(Cl)cc2)cc1C1=C(O)C2(CCC3(CC2)OCC(C)(C)CO3)NC1=O [1-67, 3-(4′-chloro-4-methylbiphenyl-3-yl)-4-hydroxy-11,11-dimethyl-9,13-dioxa-1-azadispiro[4.2.5.2]pentadec-3-en-2-one]	918	5.2	–
CC1COC2(CCC3(CC2)NC(=O)C(c2cc(-c4ccc(Cl)cc4)ccc2Cl)=C3O)O1 (stereo not drawn) [1-68, 11-(4,4′-dichlorobiphenyl-3-yl)-12-hydroxy-2-methyl-1,4-dioxa-9-azadispiro[4.2.4.2]tetradec-11-en-10-one]	–	5.9	547
CC1COC2(CCC3(CC2)NC(=O)C(c2cc(-c4ccc(Cl)cc4)ccc2Cl)=C3O)OC1 (stereo not drawn) [1-69, 3-(4,4′-dichlorobiphenyl-3-yl)-4-hydroxy-11-methyl-9,13-dioxa-1-azadispiro[4.2.5.2]pentadec-3-en-2-one]	838	> 20	–
Cc1ccc(-c2ccc(Cl)cc2)c(C)c1C1=C(O)C2(CCC3(CC2)OCCO3)NC1=O [1-70, 11-(4′-chloro-2,4-dimethylbiphenyl-3-yl)-12-hydroxy-1,4-dioxa-9-azadispiro[4.2.4.2]tetradec-11-en-10-one]	–	2.92	286
COC1CCCC2(C1)NC(=O)C(c1c(C)ccc(-c3ccc(Cl)cc3)c1C)=C2O (stereo not drawn) [1-72, 3-(4′-chloro-2,4-dimethylbiphenyl-3-yl)-4-hydroxy-7-methoxy-1-azaspiro[4.5]dec-3-en-2-one]	–	14.9	1140
CCOC1CCCC2(C1)NC(=O)C(c1c(C)ccc(-c3ccc(Cl)cc3)c1C)=C2O (stereo not drawn) [1-73, 3-(4′-chloro-2,4-dimethylbiphenyl-3-yl)-7-ethoxy-4-hydroxy-1-azaspiro[4.5]dec-3-en-2-one]	563	> 20	–
CCOC1CCC2(CC1)NC(=O)C(c1c(C)cc(C)c(-c3ccc(Cl)cc3)c1C)=C2O (stereo not drawn) [1-75, 3-(4′-chloro-2,4,6-trimethylbiphenyl-3-yl)-8-ethoxy-4-hydroxy-1-azaspiro[4.5]dec-3-en-2-one]	–	0.803	5680
Cc1ccc(-c2ccc(Cl)cc2)cc1C1=C(O)C(C)(C(C)C)NC1=O (stereo not drawn) [1-78, 3-(4′-chloro-4-methylbiphenyl-3-yl)-4-hydroxy-5-methyl-5-(propan-2-yl)-1,5-dihydro-2H-pyrrol-2-one]	958	8.12	–
COC1CCC2(CC1)NC(=O)C(c1cc(-c3ccc(Cl)c(Cl)c3)ccc1C)=C2O (stereo not drawn) [1-81, 3-(3′,4′-dichloro-4-methylbiphenyl-3-yl)-4-hydroxy-8-methoxy-1-azaspiro[4.5]dec-3-en-2-one]	–	2.61	–
Cc1ccc(-c2ccc(Cl)cc2)cc1-c1c(O)c2ccccc2[nH]c1=O [9-5, 3-(4′-chloro-4-methylbiphenyl-3-yl)-4-hydroxyquinolin-2(1H)-one]	661	–	–
Cc1ccc(-c2ccc(Cl)cc2)cc1-c1c(O)c2ccc(F)cc2[nH]c1=O [9-8, 3-(4′-chloro-4-methylbiphenyl-3-yl)-7-fluoro-4-hydroxyquinolin-2(1H)-one]	174	–	–
Cc1ccc(-c2ccc(F)cc2)cc1-c1c(O)c2ccc(F)cc2[nH]c1=O [9-9, 7 fluoro-3-(4′-fluoro-4-methylbiphenyl-3-yl)-4-hydroxyquinolin-2(1H)-one]	2940	–	–
Cc1ccc(-c2ccc(C(F)(F)F)cc2)cc1-c1c(O)c2ccc(F)cc2[nH]c1=O [9-10]	1410	–	–
CC1(C)OC(=O)C(c2cc(-c3ccc(Cl)cc3)ccc2Cl)=C(O)C1(C)C [10-1, 3-(4,4′-dichlorobiphenyl-3-yl)-4-hydroxy-5,5,6,6-tetramethyl-5,6-dihydro-2H-pyran-2-one]	–	–	1070
Cc1ccc(-c2ccc(Cl)cc2)cc1C1=C(O)C(C)(C)C(C)(C)OC1=O [10-2, 3-(4′-chloro-4-methylbiphenyl-3-yl)-4-hydroxy-5,5,6,6-tetramethyl-5,6-dihydro-2H-pyran-2-one]	–	–	760
